Source: article PMC11898738 (mBio, 2025)

B1: recombinant BbPMI labeled with RED-NHS dye (BbPMI-NT647) (enzyme)
chain: MNNEDNIFLMKNNIKEYDWGGINFIPNLLGDKIDGKPKAEMWLGAHKTFSSKILYKNEYVLLSDFLEDHKELLGCNDEFPFLLKVLSANKPLSIQIHPSKDIALKGYESENNKGIDINDPKRTYKDKNPKIELIYALSDFYALKGFLPLDEIKKIYEILELNFDFQSHKDFVKTIFDLQMYELEKIIEKILKNLDLIDNFRGYWFNEIYNIYGIDVGLLVFLGMNILKLKPGEVVYTNSQEVHAYLKGDCIELMTNSDNVIRAGLTTKYIDKDEMLRVGQFEEGKLSFLNPDFQDNFSVFRLPNTNLKLIQKKINENICINRNSAMVLLVLNGCVSINKSLNLKKGESIFIGKKAENLFIDGDGEAFIAGFN
modifications: labeled using RED-NHS dye (NT647)

Legend:
[1] = target: T1, BbPMI (Borreliella burgdorferi, UniProt O51368); experiment: coupled PGI/G6PDH assay, NADPH at […] nm; format: biochemical
T1 construct: gene manA

[2] = target: type IV collagen (UniProt P02462 173-1669; P08572 184-1712); experiment: MST; BbPMI labeled with RED-NHS dye at constant 5 nM; serial dilutions of collagen IV or controls; PBS + 0.05% Tween-20; 15 minutes at RT; standard capillaries, 10% excitation, 40% MST power; T-Jump analysis; details: both partners purified

Row | Molecule | IC50 [1] | Kd [2]
1 | Cc1ccc(C)c(-n2sc3cc(F)ccc3c2=O)c1 [MLS0315771, 2-(2,5-dimethylphenyl)-6-fluorobenzo[d]isothiazol-3(2H)-one] | 600 to 900 nM | 
2 | O=c1c2ccc(F)cc2sn1-c1ccccc1 [NCGC00871019-01] | ~500 nM | 
3 | Cc1ccc(C)c(-n2sc3ccc(F)cc3c2=O)c1 [NCGC00871020-01] | ~500 nM | 
4 | COc1ccc(-n2sc3ccc(F)cc3c2=O)cc1 [NCGC00871021-01] | ~500 nM | 
5 | B1 |  | 128 ± 45.1 nM
